Experiment [1] has as its system T1, rLacC.
T1 construct: gene lacC; recombinant secreted laccase, obtained previously (Savinova et al., 2017)
In words: spectrophotometric oxidation assay, […] nm, non-linear fit. Format: biochemical, Trametes hirsuta. As to conditions: 0.1 M citrate-phosphate pH 4.5, 24°C.

For experiment [2], the system named is T1, rLacC. The description is as above. Format: biochemical, Trametes hirsuta. As to conditions: 0.1 M citrate-phosphate pH 4.5, 24°C. This is another data set of the same source.
In experiment [3] the test system is T2, rLacC.
T2 construct: gene lacC
As to conditions: read-out: KM, μM / rLacC; 0.1 M citrate-phosphate pH 4.5, 24°C.

In experiment [4] the test system is T1, rLacC. Description: spectrophotometric oxidation assay, […] nm, non-linear fit. It is filed as biochemical, Trametes hirsuta. As to conditions: 0.1 M citrate-phosphate pH 4.5, 24°C. The source holds these as a separate data set.
For experiment [5], the target named is T3, LacA (Trametes hirsuta, UniProt A0A0A7M685).
T3 construct: native major secreted laccase, purified previously (Savinova et al., 2017)
T3 sequence (A0A0A7M685 22-520): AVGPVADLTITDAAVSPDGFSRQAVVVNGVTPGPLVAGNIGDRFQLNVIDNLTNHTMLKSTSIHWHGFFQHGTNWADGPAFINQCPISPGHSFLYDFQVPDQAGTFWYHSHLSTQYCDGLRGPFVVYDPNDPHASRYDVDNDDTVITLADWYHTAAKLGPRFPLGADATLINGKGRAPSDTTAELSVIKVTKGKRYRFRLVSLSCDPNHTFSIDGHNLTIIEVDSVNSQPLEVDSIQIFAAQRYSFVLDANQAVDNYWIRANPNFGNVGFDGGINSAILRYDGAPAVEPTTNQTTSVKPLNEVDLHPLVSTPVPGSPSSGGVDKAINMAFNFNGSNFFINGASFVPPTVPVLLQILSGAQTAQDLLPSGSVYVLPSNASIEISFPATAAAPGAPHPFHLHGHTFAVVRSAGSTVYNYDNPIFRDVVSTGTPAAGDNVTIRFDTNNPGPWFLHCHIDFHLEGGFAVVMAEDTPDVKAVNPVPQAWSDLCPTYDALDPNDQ
Described as above. It is filed as biochemical. The following applies: 0.1 M citrate-phosphate pH 4.5, 24°C; cited from earlier work.

Experiment [6] deals with T1, rLacC. Described as above. As to conditions: 0.1 M citrate-phosphate pH 4.5, 24°C. It is filed as biochemical, Trametes hirsuta. The source holds these as a separate data set.

Where two headings read alike, the source gives them in different places.

`COc1cccc(OC)c1O` [2,6-DMP, 2,6-dimethoxyphenol]: the Km in experiment [1] stood at 589 ± 75 µM.

As for `Oc1ccccc1O` [Catechol], in experiment [2], the Km is 16300 ± 1720 µM.

With `COc1cc(/C=C/C(=O)O)ccc1O` [Ferulic acid], in experiment [3], the Km stood at 173 ± 38 µM.

`COc1ccccc1O` [Guaiacol]: in experiment [4], the Km is 15700 ± 337 µM.

Consider `COc1cc(/C=C/C(=O)O)cc(OC)c1O` [Synapic acid], for which the Km was 17 ± 2 µM in experiment [5] and 71 ± 14 µM in experiment [6].
